# Results: paper PMC10314207, “The Dynamic Intestinal Absorption Model (Diamod®), an in vitro tool to study the interconnected kinetics of gastrointestinal solubility, supersaturation, precipitation, and intestinal permeation processes of oral drugs” (International Journal of Pharmaceutics: X, 2023)
# Counter-ions that a name gives are not always drawn.
# Assays:
# [1] = water intake versus no water, cited from earlier work
# [2] = high carbohydrate meal; ref Carver et al. (1999); cited from earlier work
# [3] = Diamod® fed state: indinavir sulfate with protein meal (Ensure® plus) or carbohydrate meal, high or low bile salts
# [4] = Diamod® fasted state: 20 mL Sporanox® solution without or with 240 mL water (stomach, duodenum, permeate); assay type: in vitro ADME
# Method: The stomach vessel accepts gastric secretions (Flow rate F1) and is continuously emptied (Flow rate F2) into the second reactor vessel which simulates the lumen of the duodenum and the blood stream that accepts the permeated fraction. […] The geometry of the inner donor compartment is designed to contain biorelevant duodenal volumes (30 mL), to generate a permeation surface area of 65 cm^2 and to result in a permeation surface area to donor volume ratio of 2 cm^−1.
# [5] = ref Bevernage et al., 2012; cited from earlier work
# [6] = fed, carbohydrate meal, high bile salts
smiles,measurement,setting,value
"CC(O)COC[C@H]1O[C@@H]2O[C@H]3[C@H](O)[C@@H](O)[C@@H](O[C@H]4[C@H](O)[C@@H](O)[C@@H](O[C@H]5[C@H](O)[C@@H](O)[C@@H](O[C@H]6[C@H](O)[C@@H](O)[C@@H](O[C@H]7[C@H](O)[C@@H](O)[C@@H](O[C@H]8[C@H](O)[C@@H](O)[C@@H](O[C@H]1[C@H](O)[C@H]2O)O[C@@H]8COCC(C)O)O[C@@H]7COCC(C)O)O[C@@H]6COCC(C)O)O[C@@H]5COCC(C)O)O[C@@H]4COCC(C)O)O[C@@H]3COCC(C)O (stereo partly drawn) [2-HP-β-CD, 2-hydroxypropyl-β-cyclodextrin]",fold decrease in duodenal AUC0-3h,"[1]; in vivo duodenal aspirates, ref Berben et al. (2018c)",2.3 fold
CC(C)(C)NC(=O)[C@@H]1CN(Cc2cccnc2)CCN1C[C@@H](O)C[C@@H](Cc1ccccc1)C(=O)N[C@H]1c2ccccc2C[C@H]1O [indinavir sulfate],increase of Tmax,[2],approximately 3 h
same,decrease in average duodenal solute concentration AUC0–240min,[3]; fed high protein meal versus fasted,34.2%
CC(C)(C)NC(=O)[C@@H]1CN(Cc2cccnc2)CCN1C[C@@H](O)C[C@@H](Cc1ccccc1)C(=O)N[C@H]1c2ccccc2C[C@H]1O [indinavir],Cmax total in the duodenum,[3]; [6],504.3 ± 3.1 µM
same,Cmax total in the stomach,[3]; [6],1225.5 ± 19.9 µM
same,supersaturation state in the duodenum,[3]; [6],supersaturated throughout the transit through the duodenum
same,supersaturation state in the duodenum,"[3]; fed, carbohydrate meal, low bile salts",supersaturating throughout the transit through the duodenum
same,Cmax total in the duodenum,"[3]; fed, high protein meal",514.8 ± 16.5 µM
same,Cmax total in the stomach,"[3]; fed, high protein meal (Ensure® Plus)",1386.0 ± 120.11 µM
same,duodenal solute concentrations,"[3]; fed, high protein meal, after bile salts decreased towards fasted levels",around 100 μM
same,supersaturation state in the duodenum,"[3]; fed, high protein meal, period of high bile salts",not in a state of supersaturation
CCC(C)n1ncn(-c2ccc(N3CCN(c4ccc(OCC5COC(Cn6cncn6)(c6ccc(Cl)cc6Cl)O5)cc4)CC3)cc2)c1=O (stereo not drawn) [itraconazole],additional precipitation in the duodenum upon water intake,[4]; difference of solute and total AUC reduction,24.0%
same,dissolution state during transit through the stomach,[4]; independently of water intake,completely dissolved
same,decrease in AUC0-180min of permeated drug,[4]; water intake versus no water,3.2%
same,decrease in stomach solute AUC0-180min,[4]; water intake versus no water,47%
same,decrease in stomach total AUC0-180min,[4]; water intake versus no water,45%
same,decrease of duodenal AUC0-180min of solute concentration,[4]; water intake versus no water,56.1%
same,fold decrease of stomach AUC0-180min of solute itraconazole,[4]; water intake versus no water,1.9 fold
same,reduction of duodenal AUC0-180min of total concentration,[4]; water intake versus no water,32.1%
same,solubility in FaSSGF,[5],2.7 µM
same,reduction (times) in average dissolved gastric AUC0-3h,"[1]; in vivo, ref Berben et al., 2017",1.8 times
